Consider twelve molecules from ChEMBL document CHEMBL1127090, “In vitro cytotoxicity of GC sequence directed alkylating agents related to distamycin” (J Med Chem, 1993).

For experiment [1], the system named is K562. Put plainly: Inhibitory activity against K-562 (human chronic myeloid Leukemia) cells. The format is functional, cell-based.
The test system of experiment [2] is Nucleic Acid. The experiment in a line: Apparent binding constant to poly (dA.dT) DNA was evaluated by measuring the loss of ethidium fluorescence. The format is nucleic-acid assay.
The subject of the next experiment is COLO 205. Put plainly: Cytotoxicity against the COLO-205 Colon Cancer cell line from human cancer. It counts as functional. Particulars: read-out: LC50 (the source's name).
For a further experiment, the system named is DMS-114. Put plainly: Cytotoxicity against the DMS114 Small Cell Lung Cancer cell line from human cancer. The format is functional. The following applies: read-out: LC50 (the source's name).
The subject of the next experiment is EKVX. Put plainly: Cytotoxicity against the […] Non-Small Cell Lung Cancer cell line from human cancer. The format is functional. Particulars: read-out: LC50 (the source's name).
The subject of another experiment is HL-60. The experiment in a line: Cytotoxicity against the HL-60 (TB) Leukemia cell line from human cancer. The format is functional. Particulars: read-out: LC50 (the source's name).
Another experiment concerns HOP-62. Put plainly: Cytotoxicity against the HOP-62 Non-Small Cell Lung Cancer cell line from human cancer. The format is functional. Particulars: read-out: LC50 (the source's name).
The subject of a further experiment is HCC 2998. Put plainly: Cytotoxicity against the HCC2998 Colon Cancer cell line from human cancer. The format is functional. The following applies: read-out: LC50 (the source's name).
Experiment [3] relates to K562. The experiment in a line: Cytotoxicity against the K-562 Leukemia cell line from human cancer. It counts as functional. The following applies: read-out: LC50 (the source's name).
Another experiment deals with M19-MEL. The experiment in a line: Cytotoxicity against the M19-MEL Melanoma cell line from human cancer. The format is functional. Particulars: read-out: LC50 (the source's name).
A further experiment has as its system KM12. Put plainly: Cytotoxicity against the KM12 Colon Cancer cell line from human cancer. It counts as functional. The following applies: read-out: LC50 (the source's name).
The test system of another experiment is Malme-3M. The experiment in a line: Cytotoxicity against the MALME-3M Melanoma cell line from human cancer. The format is functional. The following applies: read-out: LC50 (the source's name).
In another experiment the test system is MOLT-4. The experiment in a line: Cytotoxicity against the Molt-4 Leukemia cell line from human cancer. The format is functional. Particulars: read-out: LC50 (the source's name).
Another experiment has as its system OVCAR-3. Put plainly: Cytotoxicity against the OVCAR-3 Ovarian Cancer cell line from human cancer. The format is functional. Particulars: read-out: LC50 (the source's name).
A further experiment deals with OVCAR-4. The experiment in a line: Cytotoxicity against the OVCAR-4 Ovarian Cancer cell line from human cancer. The format is functional. Particulars: read-out: LC50 (the source's name).
For a further experiment, the system named is NCI-H23. The experiment in a line: Cytotoxicity against the NCI-H23 Non-Small Cell Lung Cancer cell line from human cancer. The format is functional. Particulars: read-out: LC50 (the source's name).
Another experiment concerns RXF 393. The experiment in a line: Cytotoxicity against the RXF-393 Renal Cancer cell line from human cancer. It counts as functional. The following applies: read-out: LC50 (the source's name).
In a further experiment the test system is SF-268. Put plainly: Cytotoxicity against the SF-268 CNS Cancer cell line from human cancer. The format is functional. The following applies: read-out: LC50 (the source's name).
For the next experiment, the system named is SK-MEL-2. The experiment in a line: Cytotoxicity against the SK-MEL-2 Melanoma cell line from human cancer. It counts as functional. Particulars: read-out: LC50 (the source's name).
In a further experiment the test system is SW-620. Put plainly: Cytotoxicity against the SW-620 Colon Cancer cell line from human cancer. The format is functional. Particulars: read-out: LC50 (the source's name).
The test system of a further experiment is SN12C. The experiment in a line: Cytotoxicity against the SN12C Renal Cancer cell line from human cancer. It counts as functional. Particulars: read-out: LC50 (the source's name).
A further experiment relates to SNB-75. Put plainly: Cytotoxicity against the SNB-75 CNS Cancer cell line from human cancer. The format is functional. The following applies: read-out: LC50 (the source's name).
The next experiment relates to SK-OV-3. The experiment in a line: Cytotoxicity against the SK-OV-3 Ovarian Cancer cell line from human cancer. The format is functional. Particulars: read-out: LC50 (the source's name).
A further experiment has as its system SK-MEL-28. The experiment in a line: Cytotoxicity against the SK-MEL-28 Melanoma cell line from human cancer. The format is functional. Particulars: read-out: LC50 (the source's name).
Another experiment concerns Tequatrovirus T4. Put plainly: Apparent binding constant to T4 coliphage DNA was evaluated by measuring the loss of ethidium fluorescence. The format is functional.
A further experiment deals with U-251. The experiment in a line: Cytotoxicity against the U251 CNS Cancer cell line from human cancer. It counts as functional. Particulars: read-out: LC50 (the source's name).
The species entered for another experiment is Bos taurus. Put plainly: Apparent binding constant to calf thymus DNA was evaluated by measuring the loss of ethidium fluorescence.
Experiment [4] relates to Nucleic Acid. Put plainly: Apparent binding constant to poly (dG.dC) DNA was evaluated by measuring the loss of ethidium fluorescence. The format is nucleic-acid assay.
For a further experiment, the system named is DMS-273. The experiment in a line: Cytotoxicity against the DMS273 Small Cell Lung Cancer cell line from human cancer. The format is functional. The following applies: read-out: LC50 (the source's name).

Where only a bound is given, the exact number is not on record here.

In the case of `CN(C)CCNC(=O)c1nc(NC(=O)c2nc(NC(=O)C3CC3)cn2C)cn1C`, the IC50 with K562 [1] is more than 500 µM.

Take `CCBr`: the K app in the experiment on Nucleic Acid [2] was determined as 9.5e+06 M⁻¹.

As to `CN(C)CCNC(=O)c1nc(NC(=O)c2nc(NC(=O)c3ccc(N(CCCl)CCCl)cc3)cn2C)cn1C`, the CC50 in the experiment with COLO 205 is 5.88 µM; with DMS-114, 5.83 µM; with EKVX, 47.5 µM; in the experiment with HL-60, 7.84 µM; with HOP-62 it was 52.3 µM; in the experiment with HCC 2998 it was 33.7 µM. In addition, the CC50 was found to be 17.2 µM with K562 [3]; 5.64 µM in the experiment with M19-MEL; 47 µM with KM12; 6.14 µM in the experiment on Malme-3M; 18.1 µM with MOLT-4; 56 µM in the experiment on OVCAR-3. Also, the CC50 was 34.2 µM in the experiment on OVCAR-4; 47.1 µM in the experiment with NCI-H23; 50.3 µM in the experiment on RXF 393; 50 µM in the experiment with SF-268; 7.17 µM with SK-MEL-2; 9.95 µM with SW-620. Moreover, the CC50 in the experiment with SN12C amounted to 15.6 µM; with SNB-75, 41 µM; in the experiment with SK-OV-3 it was 52.9 µM; with SK-MEL-28 it was 5.69 µM; in the experiment with U-251 it was 6.73 µM. In the experiment with K562 [1], this molecule returned an IC50 of 12.5 µM. The K app with Tequatrovirus T4 was found to be 236000 M⁻¹; in the experiment filed under Bos taurus, 456000 M⁻¹; with Nucleic Acid [4], 455000 M⁻¹; in the experiment on Nucleic Acid [2], 475000 M⁻¹.

In the experiment with K562 [1], `CN(C)CCNC(=O)c1nc(NC(=O)c2nc(NC(=O)CBr)cn2C)cn1C` displayed an IC50 of 400 µM.

Regarding `CN(C)CCNC(=O)c1nc(NC(=O)c2nc(NC(=O)c3nc(NC=O)cn3C)cn2C)cn1C`, the K app with Tequatrovirus T4 worked out at 667000 M⁻¹; in the experiment filed under Bos taurus it was 774000 M⁻¹; in the experiment with Nucleic Acid [4] it was 613000 M⁻¹; in the experiment with Nucleic Acid [2] it was 594000 M⁻¹.

With `N[C@@H](Cc1ccc(N(CCCl)CCCl)cc1)C(=O)O` [MELPHALAN], the 50% inhibitory concentration (IC50) with K562 [1] came to 35 µM.

In the case of `CN(C)CCNC(=O)c1nc(NC=O)cn1C`, the K app in the experiment listed under Bos taurus was found to be 25000 M⁻¹; in the experiment with Nucleic Acid [4], 2000 M⁻¹.

In the case of `CN(C)CCNC(=O)c1nc(NC(=O)c2nc(NC(=O)c3nc(NC(=O)c4ccc(N(CCCl)CCCl)cc4)cn3C)cn2C)cn1C`, the CC50 with COLO 205 turned out to be 0.97 µM; in the experiment with DMS-114, 0.54 µM; with DMS-273, 0.99 µM; in the experiment with EKVX it was 0.88 µM; with HL-60, 0.72 µM; in the experiment with HOP-62 it was 1.17 µM. The CC50 with HCC 2998 came to 0.68 µM; in the experiment on K562 [3], 0.58 µM; with M19-MEL it was 0.56 µM; with KM12, 0.96 µM; with Malme-3M, 2.63 µM; in the experiment with MOLT-4 it was 0.98 µM. The CC50 in the experiment with OVCAR-3 was 0.72 µM; in the experiment with OVCAR-4, 0.61 µM; in the experiment on NCI-H23, 0.96 µM; in the experiment with RXF 393, 0.66 µM; in the experiment with SF-268, 0.77 µM; with SK-MEL-2, 0.65 µM. For the same molecule, the CC50 in the experiment with SW-620 was determined as 0.79 µM; in the experiment on SN12C, 0.61 µM; in the experiment with SNB-75, 0.61 µM; in the experiment with SK-OV-3 it was 0.83 µM; with SK-MEL-28, 0.91 µM; in the experiment with U-251, 0.5 µM. In the experiment with K562 [1], half-maximal inhibition (IC50) required 0.3 µM. Also, the K app with Tequatrovirus T4 turned out to be 168000 M⁻¹; in the experiment filed under Bos taurus, 591000 M⁻¹; in the experiment on Nucleic Acid [4], 495000 M⁻¹; with Nucleic Acid [2] it was 950000 M⁻¹.

`CN(C)CCNC(=O)c1nc(NC(=O)c2nc(NC(=O)C(Cl)Cl)cn2C)cn1C` had an IC50 in the experiment with K562 [1] of more than 500 µM.

On to `CN(C)CCNC(=O)c1nc(NC(=O)c2nc(NC=O)cn2C)cn1C`, for which the concentration for half-maximal inhibition (IC50) in the experiment on K562 [1] is more than 500 µM. In addition, the K app in the experiment on Tequatrovirus T4 worked out at 40000 M⁻¹; in the experiment listed under Bos taurus it was 32000 M⁻¹; with Nucleic Acid [4], 23000 M⁻¹; in the experiment with Nucleic Acid [2], 17000 M⁻¹.

For `CN(C)CCNC(=O)c1nc(NC(=O)c2nc(NC(=O)CCl)cn2C)cn1C`, inhibition in the experiment with K562 [1] was half-maximal at 350 µM (IC50).

As for `Cn1cc(NC(=O)c2cc(NC(=O)c3cc(NC=O)cn3C)cn2C)cc1C(=O)NCCC(=N)N` [STALLIMYCIN], the K app in the experiment on Tequatrovirus T4 was 650000 M⁻¹; in the experiment listed under Bos taurus, 774000 M⁻¹; with Nucleic Acid [4] it was 203000 M⁻¹; in the experiment on Nucleic Acid [2] it was 3.48e+07 M⁻¹.

The IC50 is the point on the concentration scale where inhibition reaches its midpoint. Low readings indicate greater potency, high ones weaker potency.
